Reference: patent US20220305021A1, “METHODS OF TREATING AND/OR PREVENTING PSORIASIS” (Athenex, Inc., priority 2019, published 2022)

Columns and labels:
subjects with psoriasis = assay: Phase I clinical trial of topical KX-01 ointment in subjects with psoriasis; format: in vivo, human
Method: Six subjects with psoriasis with Total Area Score (TAS) of 4-8 (based on the sum of the scores of erythema, elevation and scaling) were assessed. […] In stage I, each subject will be assigned randomly to KX-01 (0.01%, n=6) or placebo (n=2) before the first administration of investigational medicinal product (KX-01 or placebo). 22 subjects are recruited in three stages. Each subject in stage I will receive treatment for two weeks, followed by one-week wash-out, another two-week treatment, and then two-week follow-up. After a satisfactory collaborative review for the safety data of the lower strength (0.01%) at the end of follow up for each subject, if there is no major safety concern (major safety concern is defined as ≥2 subjects in the KX-01 group having ≥CTCAE Grade 3 or severe adverse drug reaction), as well as an unanimous consent by the sponsor and the principle investigator(s), stage II study begins where each subject is assigned randomly to KX-01 (0.1%, n=6) or placebo (n=2) before the first administration. Each subject in the stage II will receive treatment for four weeks, followed by a two-week follow-up. After a satisfactory collaborative review for the safety data of the lower strength (0.1%) at the end of follow up for each subject, if there is no major safety concern, stage III study follows. Stage III comprises a single arm study (n=6), where each subject will receive 1% KX-01 once daily for consecutive five days and then receive post-treatment follow-up on day 6, 15, and 29. • Stage I: 6 subjects (KX-01 0.01% [0.1 mg/g])+2 subjects (placebo) • Stage II: 6 subjects (KX-01 0.1% [1.0 mg/g])+2 subjects (placebo) • Stage III: 6 subjects (KX-01 1% [10 mg/g]) Subjects visit the study center for ambulatory visits: • Stage I (See Tables 1A and 1B) • Visit 1: Screening, within 28 days before first application of IMP • Visit 2: Week 1 (Day 1/Baseline) • Visit 3: Week 2 (Day 8±3/After consecutive 1-week treatment) • Visit 4: Week 3 (Day 15±3/After consecutive 2-week treatment) • Visit 5: Week 4 (Day 22±3/After 1 week wash-out) • Visit 6: Week 6 (Day 36±3/After another consecutive 2-week treatment) • Visit 7: Week 8 (Day 50±3/After 2-week post-treatment follow-up) • Stage II (See Tables 2A and 2B) • Visit 1: Screening, within 28 days before first application of IMP • Visit 2: Week 1 (Day 1/Baseline) • Telephone interview (Day 8±3, after consecutive 1-week treatment) • Visit 3: Week 3 (Day 15±3/After consecutive 2-week treatment) • Visit 4: Week 5 (Day 29±3/After consecutive 4-week treatment) • Visit 5: Week 7 (Day 43±3/After 2-week post-treatment follow-up) • […] (See Table 3) • Visit 1: Screening, within 28 days before first application of IMP • Visit 2: Day 1, baseline • Visit 3: Day 6±1, after consecutive 5-day treatment • Visit 4: Day 15±2, after 10-day post-treatment follow up • Visit 5: Day 29±2, after 24-day post-treatment follow-up The IMP (treatment or placebo) is applied to a single lesion. […] For stage I, each subject receives IMP for 14 consecutive days, followed by 1-week wash-out period and then receives IMP for another 14 consecutive days. For stage II, each subject receives IMP for 28 consecutive days. For stage III, each subject receives IMP once daily for consecutive five days. For stage I and II, blood samples for the determination of KX-01 concentrations are collected prior to the morning dose at the designated ambulatory visits to the study center (Stage I: Day 1, 8±3, 15±3, 22±3 Stage II: Day 1, 15±3, 29±3) (See Table 4). For stage III, blood samples for drug concentrations are collected prior to the dose on day 1, and day 6±1, day 15±2. The duration of this study is approximately three months for each subjects (See Table 4). On day 1, a single treatment lesion consisting of active psoriasis skin lesion of at least 16 cm^2 in size with upper limit of 625 cm^2 for stage I and II, and at least 16 cm^2 and no more than 100 cm^2 (≥16 cm^2 &≤100 cm^2) in size for stage III is selected for each subject. […]

mini-pigs = assay: Once daily KX-01 1% ointment on mini-pigs, occluded skin, 28 days; format: in vivo, mini-pig
Text: KX-01 1% once daily administration of KX-01 ointment was examined on the mini-pigs on 10% of body surface area with skin being occluded for consecutive 28 days.

rabbits = assay: Twice daily dermal administration of KX-01 ointment to rabbits (seven days, single dose on day eight); format: in vivo, rabbit; conditions: up to 2.0667 mg/kg KX-01 in ointment, seven days twice daily dosing with a single dose on day eight
rats = assay: Twice daily dermal administration of KX-01 ointment to rats (six days); format: in vivo, rat
Method: Subjects in clinical studies of KX-01 ointment where administered KX-01 ointment up to 250 mg (5 mg/cm^2 [administration amount]×25 cm^2 [administration area]×2 [safety factor for larger application area]). This amount of the 0.01% or 0.1% concentration of ointment contains 0.025 mg or 0.25 mg of KX-01. Therefore, the amount of KX-01 delivered to the skin of the average 60 kg subject is 0.025 or 0.25 mg/60 kg/dose, or 0.00042 or 0.0042 mg/kg/dose. […] The safety margin in administered dermal KX-01 dose indicates little risk of adverse systemic effects in humans under the conditions of the clinical studies of KX-01 ointment based on nonclinical studies in animals.

[1] = 1% ointment daily for five days, observed in one subject
[2] = KX-01 ointment 0.01% twice daily dose regimen
[3] = 1% ointment once daily, 10% of body surface area, occluded, 28 consecutive days

## O=C(Cc1ccc(-c2ccc(OCCN3CCOCC3)cc2)cn1)NCc1ccccc1 [KX-01, Tirbanibulin]
Subjects with psoriasis; 1% ointment daily for five days, topical
  Systemic absorption of KX-01: no significant absorption
Subjects with psoriasis; 1% ointment daily for five days, another subject of six
  Psoriatic plaque thickness: improvement
Subjects with psoriasis; [1]
  Skin burning sensation (adverse event severity): mild (grade-1)
  Skin irritation (adverse event severity): mild (grade-1)
Subjects with psoriasis; 1% ointment daily for five days, one subject of six
  Skin scaling: complete resolution
Subjects with psoriasis; 1% ointment daily for five days, six subjects
  Tolerability of treatment: well-tolerated
Subjects with psoriasis; 1% ointment daily for five days, six subjects, baseline TAS 4-8
  TAS score (sum of erythema, elevation and scaling): All subjects showed an improvement
Subjects with psoriasis; KX-01 (Tirbanibulin) 1% ointment daily for five days, first cohort of subjects with psoriasis
  Clinical activity: Clinical activity signals were observed
Subjects with psoriasis; [2]
  Serious adverse events (SAE): No serious adverse event
  Treatment-emergent adverse events related to drug: Only one treatment-emergent adverse event, Grade 1 tenderness
Subjects with psoriasis; KX-01 ointment 0.01% twice daily dose regimen, most subjects
  Tolerability: excellent and good
Subjects with psoriasis; KX-01 ointment in the treatment of psoriasis
  Safety profile: Good safety profile
mini-pigs; [3]
  Body weight: decreased
  Edema at the drug application site: very slight to slight
  Erythema and eschar at the drug application site: very slight to severe
  Hepatic, renal, and haematological profiles: changes
  Other skin findings at the drug application site: desquamation, fissuring, scab, ulceration
mini-pigs; by the last week of recovery after 28 days of 1% ointment
  Reversibility of findings: Most of these findings were resolved
rabbits
  Skin irritation: mild to moderate
  Systemic adverse effects: no signs of systemic adverse effects
rats; 0.01% ointment, 0.025 mg/60 kg/dose (0.00042 mg/kg/dose) in humans vs 12.4 mg/kg/dose in rats
  Safety margin: clinical dermal dose times lower than rat 12.4 mg/kg/dose: approximately 29700 times
rats; 0.1% ointment, 0.25 mg/60 kg/dose (0.0042 mg/kg/dose) in humans vs 12.4 mg/kg/dose in rats
  Safety margin: clinical dermal dose times lower than rat 12.4 mg/kg/dose: ~2970 times
rats; rat, in vivo
  Plasma concentrations of KX-01: very low
